Results reported in patent US20230312564A1, “AROMATIC RING-LACTAM COMPOUND, PREPARATION METHOD THEREFOR AND USE THEREOF” (SHANGHAI RINGENE BIOPHARMA CO., LTD., priority 2020, published 2023).
Like-named read-outs stand apart in the source and are kept apart here.

Legend:
Colo-205 cells = assay: Colo-205 tumor cell proliferation, CCK-8, 72 hours; assay type: cell-based; conditions: for IC50: 72 hours, CCK-8, class symbols, read-out: Colo-205 IC50
Procedure: 1. Test method: Colo-205 cells (ATCC) in logarithmic growth phase were inoculated into a 96-well culture plate at an appropriate density with 90 μL per well. After overnight culture, different concentrations of the compound were added and acted for 72 hours, and a solvent control group (negative control) was set. After the compound was acted on cells for 72 hours, the effect of the compound on cell proliferation was detected by the cell counting kit CCK-8 (Dojindo), and 10 μL of CCK-8 reagent was added to each well. After the plate was placed in a 37° C. incubator for 2 to 4 hours, a full-wavelength microplate reader SpectraMax 190 was adopted for obtaining the readings with a measured wavelength of 450 nm. […] The IC50 value was obtained by four-parameter regression with the software attached to the microplate reader.

ERK1/2 kinase = biological target: T1, ERK1/2 kinase; assay: ERK1/2 kinase (Carna) inhibitory activity, Caliper mobility shift; assay type: biochemical; conditions: class symbols; read-out: ERK½ IC50
T1 construct: fused on or other part: Carna's ERK products carry a GST tag by vendor knowledge
Procedure: (1) Preparation of 1×Kinase buffer; (2) preparation of compound concentration gradient: the initial test concentration of the tested compound was 10 μM, which was 3-fold diluted to 10 concentrations, and a duplicate test was conducted, and then the tested compound was diluted in a 96 well plate to a 100-fold final concentration of 10 different concentrations of solution. […] Log (inhibitor) vs. response—Variable slope of the analysis software GraphPad Prism 5 was used to fit the dose-effect curve to obtain the IC50 value of each compound on the enzyme activity.
2. […] (A<10 nM, 10 nM≤B<200 nM, C≥200 nM)

[1] = In-vivo pharmacokinetic parameters in mice; set-up: species or system Balb-c mice; conditions: for F: PO 5 mg/kg vs IV 1 mg/kg; for AUC(0-inf) / AUC(0-t) / MRT inf / clearance / half-life / Vd / Cmax / Tmax: male, Balb-c, mouse, plasma; for Vd: read-out: Vss
Procedure: Six male SPF grade SD rats or Balb-c mice (Shanghai Sipple-Bikai Laboratory Animal) were divided into two groups, and the tested compounds were prepared into appropriate solutions or suspensions; one group was administered intravenously (with a dose of 1 mg/kg), and the other group was administered orally (with a dose of 5 mg/kg). Blood samples were collected by jugular vein puncture, and each sample was collected with a volume of about 0.2 mL/time point, and heparin sodium was used for anticoagulation. The time points of blood collection were listed below: 5, 15 and 30 min […], 1, 2, 4, 6, 8 and 24 h after administration; the collected blood samples were placed on ice and centrifuged to separate plasma (centrifugation conditions: 8,000 rpm, 6 min, 2 to 8° C.), and the collected plasma was stored at −80° C. before analysis. Plasma samples were analyzed by LC-MS/MS.
The pharmacokinetic parameters such as AUC0-t, AUC0-∞, MRT0-∞, Cmax, Tmax, T1/2 and Vd of the tested compounds and their mean values and standard deviations were calculated by the pharmacokinetic calculation software WinNonlin5.2 non-compartmental model according to the plasma concentration data. In addition, the bioavailability (F) was calculated by the following formula.
For samples with concentrations below the lower limit of quantitation, while pharmacokinetic parameter calculations were performed, samples sampled before Cmax was reached should be calculated as a zero value and samples sampled after Cmax was reached should be calculated as below limit of quantitation (BLQ).

Row | Compound | IC50 (Colo-205 cells; Homo sapiens, COLO 205) | IC50 (ERK1/2 kinase) | F [1] | AUC(0-inf) ([1]; IV, 1 mg/kg) | AUC(0-t) ([1]; IV, 1 mg/kg) | MRT inf ([1]; IV, 1 mg/kg) | clearance ([1]; IV, 1 mg/kg) | half-life ([1]; IV, 1 mg/kg) | Vd ([1]; IV, 1 mg/kg) | AUC(0-inf) ([1]; PO, 5 mg/kg) | AUC(0-t) ([1]; PO, 5 mg/kg) | Cmax ([1]; PO, 5 mg/kg) | Tmax ([1]; PO, 5 mg/kg) | half-life ([1]; PO, 5 mg/kg) | IC50 (Colo-205 cells) | cell proliferation inhibitory activity (in words) (Colo-205 cells; Colo-205)
1 | Cc1cccc([C@@H](CO)NC(=O)[C@@H](C)N2Cc3ccc(-c4cc(NC5CCOCC5)ncn4)c(F)c3C2=O)c1 [Embodiment 6] | < 0.1 µM | < 0.01 µM | – | – | – | – | – | – | – | – | – | – | – | – | – | –
2 | Cc1cccc([C@@H](CO)NC(=O)[C@@H](C)N2Cc3ccc(-c4nc(Nc5ccnn5C)ncc4Cl)nc3C2=O)c1 [Embodiment 9] | 0.1 to 1 µM | < 0.01 µM | – | – | – | – | – | – | – | – | – | – | – | – | – | –
3 | Cc1cccc([C@@H](CO)NC(=O)[C@@H](C)N2Cc3ccc(-c4nc(NC5CCOCC5)ncc4Cl)c(F)c3C2=O)c1 [Embodiment 25, (R)-2-(6-(5-Chloro-2-((tetrahydro-2H-pyran-4-yl)amino)pyrimidin-4-yl)-7-fluoro-1-oxoisoindolin-2-yl)-N—((S)-2-hydroxy-1-(m-tolyl)ethyl)propanamide] | – | – | 43% | 0.368 µM·h | 0.364 µM·h | 18 min | 80 mL/min/kg | 42 min | 1.6 L/kg | 0.796 µM·h | 0.776 µM·h | 955 nM | 18 min | 102 min | – | –
4 | Cc1cccc([C@@H](CO)NC(=O)[C@@H](C)N2Cc3ccc(-c4nc(Nc5ccnn5C)ncc4Cl)c(F)c3C2=O)c1 [Embodiment 32, (R)-2-(6-(5-Chloro-2-((1-methyl-1H-pyrazol-5-yl)amino)pyrimidin-4-yl)-7-fluoro-1-oxoisoindolin-2-yl)-N—((S)-2-hydroxy-1-(m-tolyl)ethyl)propanamide] | – | – | 26% | 0.272 µM·h | 0.268 µM·h | 24 min | 110 mL/min/kg | 60 min | 2.7 L/kg | 0.347 µM·h | 0.338 µM·h | 357 nM | 30 min | 90 min | – | –

The next lines start with results.

Row | IC50 (Colo-205 cells; Homo sapiens, COLO 205) | IC50 (ERK1/2 kinase) | F [1] | AUC(0-inf) ([1]; IV, 1 mg/kg) | AUC(0-t) ([1]; IV, 1 mg/kg) | MRT inf ([1]; IV, 1 mg/kg) | clearance ([1]; IV, 1 mg/kg) | half-life ([1]; IV, 1 mg/kg) | Vd ([1]; IV, 1 mg/kg) | AUC(0-inf) ([1]; PO, 5 mg/kg) | AUC(0-t) ([1]; PO, 5 mg/kg) | Cmax ([1]; PO, 5 mg/kg) | Tmax ([1]; PO, 5 mg/kg) | half-life ([1]; PO, 5 mg/kg) | IC50 (Colo-205 cells) | Compound | cell proliferation inhibitory activity (in words) (Colo-205 cells; Colo-205)
5 | 0.1 to 1 µM | 0.01 to 0.2 µM | – | – | – | – | – | – | – | – | – | – | – | – | – | Cc1cccc([C@@H](CO)NC(=O)[C@@H](C)N2Cc3ccc(-c4cc(NC5CCOCC5)ncn4)nc3C2=O)c1 [Embodiment 7] | –
6 | < 0.1 µM | < 0.01 µM | – | – | – | – | – | – | – | – | – | – | – | – | – | Cc1cccc([C@@H](CO)NC(=O)[C@@H](C)N2Cc3ccc(-c4ccnc(NC5CC(F)(F)C5)c4)c(F)c3C2=O)c1 [Embodiment 8] | strong cell proliferation inhibitory activity
7 | – | – | 25% | 0.276 µM·h | 0.274 µM·h | 12 min | 102 mL/min/kg | 24 min | 1.3 L/kg | 0.338 µM·h | 0.322 µM·h | 441 nM | 18 min | 90 min | – | COc1cc(F)cc([C@@H](CO)NC(=O)[C@@H](C)N2Cc3ccc(-c4nc(NC5CCOCC5)ncc4Cl)c(F)c3C2=O)c1 [Embodiment 33, (R)-2-(6-(5-Chloro-2-((tetrahydro-2H-pyran-4-yl)amino)pyrimidin-4-yl)-7-fluoro-1-oxoisoindolin-2-yl)-N—((S)-1-(3-fluoro-5-methoxyphenyl)-2-hydroxyethyl)propanamide] | –
8 | – | – | 19% | 0.83 µM·h | 0.825 µM·h | 18 min | 34 mL/min/kg | 48 min | 0.7 L/kg | 0.806 µM·h | 0.797 µM·h | 791 nM | 18 min | 90 min | – | C[C@H](C(=O)N[C@H](CO)c1cccc(Cl)c1)N1Cc2ccc(-c3nc(NC4CCOCC4)ncc3Cl)c(F)c2C1=O [Embodiment 34, (R)-2-(6-(5-Chloro-2-((tetrahydro-2H-pyran-4-yl)amino)pyrimidin-4-yl)-7-fluoro-1-oxoisoindolin-2-yl)-N—((S)-1-(3-chlorophenyl)-2-hydroxyethyl)propanamide] | –
9 | – | – | – | – | – | – | – | – | – | – | – | – | – | – | > 1 µM | (R)-2-(3-(5-Chloro-2-((tetrahydro-2H-pyran-4-yl)amino)pyrimidin-4-yl)-5-oxo-5,7-dihydro-6H-pyrrolo[3,4-b]pyridin-6-yl)-N—((S)-2-hydroxy-1-(m-tolyl)ethyl)propanamide [Comparative compound 3, reference compound] | –
